We go through 21 compounds from patent publication US20020156094A1, “Sulfonamide interleukin-1beta converting enzyme inhibitors” (Warner-Lambert Company, priority 1996, published 2002).

As a reminder, the IC50 is the concentration that inhibits the measured activity by half. The term Ki denotes the equilibrium dissociation constant of an inhibitor or competing ligand from its target. Read a low Ki as a stronger hold on the target.

Format in all cases: biochemical
For experiment [1], the target named is T1, ICE (interleukin-1β converting enzyme, Caspase-1) (Homo sapiens, UniProt P29466).
T1 sequence (P29466 120-297 limits assumed): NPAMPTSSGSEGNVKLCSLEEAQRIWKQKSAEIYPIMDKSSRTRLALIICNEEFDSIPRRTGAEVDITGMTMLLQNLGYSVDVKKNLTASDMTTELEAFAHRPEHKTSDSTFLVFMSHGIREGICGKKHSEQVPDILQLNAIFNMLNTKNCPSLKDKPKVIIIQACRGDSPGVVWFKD
T1 sequence (P29466 317-404 limits assumed): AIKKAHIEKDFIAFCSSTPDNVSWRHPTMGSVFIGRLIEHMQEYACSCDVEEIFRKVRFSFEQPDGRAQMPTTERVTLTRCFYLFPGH
Description: ICE Colorimetric Dose-Response (IC50) Assay. The following applies: ICE approx. 24 nM, 60 min preincubation, 50 μM Ac-Tyr-Val-Ala-Asp-pNA, 25° C. The protocol:
ICE Colorimetric Dose-Response (IC50) Assay
(§1) Diluted inhibitor stocks are prepared by two-fold serial dilution from a primary stock whose concentration is selected (based on screening results or on prior attempts at IC50 evaluation) to achieve approximately 95% inhibition in the most concentrated well. Aliquots of each dilution are transferred to a microtitre plate in triplicate.
(§2) ICE enzyme is diluted to approximately 24 nM in HGE buffer (100 mM HEPES pH 7.5, 0.5 mM EDTA, 20% glycerol, 0.1% Bovine Serum Albumin (BSA)), and activated by adding dithiothreitol (DTT) to a final concentration of 5 mM. The activated enzyme is then aliquoted into wells containing inhibitor or vehicle, and the plate is preincubated for 60 minutes at ambient temperature. Substrate (Ac-Tyr-Val-Ala-Asp-pNA) is added to each well to a final concentration of 50 μM, and plates are placed in the microtitre plate-reader thermostated to 25° C. Beginning 5 minutes after addition of substrate, absorbance (405 nm) of wells is monitored for 1 hour, and activity is calculated as the mean rate of change in absorbance during this interval.

In experiment [2] the target is T1, ICE (interleukin-1β converting enzyme, Caspase-1). Description: ICE Ki fluorescence assay (Ac-Tyr-Val-Ala-Asp-AMC hydrolysis). The conditions noted are these: ICE 0.24 nM, 15 μM Ac-Tyr-Val-Ala-Asp-AMC, reversible competitive model. The protocol: Substrate hydrolysis is monitored for 300 seconds by observing the fluorescence of released AMC using excitation at 380 nm and emission at 460 nm. Mean rates of substrate hydrolysis are evaluated by linear-regression analysis of the fluorescence vs time traces. To evaluate Ki, plots of percent inhibition vs inhibitor concentration are fit by non-linear regression to a reversible, competitive model: [formula]
Where the competition factor (1+[S]/KM)=2.

For a further experiment, the target named is T2, Ich-2 (Caspase-4) (Homo sapiens, UniProt P49662).
T2 sequence (P49662 81-270 limits assumed): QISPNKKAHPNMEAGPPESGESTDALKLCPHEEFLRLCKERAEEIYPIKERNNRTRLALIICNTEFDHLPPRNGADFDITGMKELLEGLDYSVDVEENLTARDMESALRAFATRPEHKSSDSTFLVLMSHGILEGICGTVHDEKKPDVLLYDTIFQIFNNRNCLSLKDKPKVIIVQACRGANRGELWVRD
T2 sequence (P49662 290-377 limits assumed): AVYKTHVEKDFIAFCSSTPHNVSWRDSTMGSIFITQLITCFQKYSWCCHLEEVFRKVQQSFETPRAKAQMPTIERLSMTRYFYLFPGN
As to the kind of experiment: Ich-2 (Caspase-4) Colorimetric Dose-Response (IC50) Assay. The following applies: enzyme 64 nM, substrate Ac-Leu-Glu-Val-Asp-pNA. The protocol:
as §1, §2
Ich-2 (Caspase-4) Colorimetric Dose-Response (IC50) Assay
Inhibition of Ich-2 enzyme is assayed as described above for ICE, except that enzyme is used at 64 nM, and 60 µM of the Ich-2-specific substrate Ac-Leu-Glu-Val-Asp-pNA is used instead of the ICE substrate Ac-Tyr-Val-Ala-Asp-pNA.

“And” between values parts separate entries of the source, which are not always exact repeats. Equal entries are not always repeated.

For the compound `O=C(O)CC(NC(=O)OCc1ccccc1)C(=O)CNS(=O)(=O)CCc1ccccc1` (stereo not shown) [Example 2a, 3-Benzyloxycarbonylamino-4-oxo-5-(2-phenylethane-sulfonylamino)-pentanoic acid], the IC50 in experiment [1] worked out at 73 µM. This compound also yielded a Ki in experiment [2] of 11 µM.
`O=C(O)CC(NC(=O)OCc1ccccc1)C(=O)CNS(=O)(=O)Cc1ccccc1` (stereo not shown) [Example 2c, 3-Benzyloxycarbonylamino-4-oxo-5-phenylmethanesulfonyl-amino-pentanoic acid] had an IC50 in experiment [1] of 168 µM. In addition, the Ki in experiment [2] is 18 µM and 14 µM.
In experiment [1], `O=C(O)CC(NC(=O)OCc1ccccc1)C(=O)CNS(=O)(=O)c1ccccc1` (stereo not shown) [Example 2d, 5-Benzenesulfonylamino-3-benzyloxycarbonylamino-4-oxo-pentanoic acid] displayed an IC50 of 291 µM. In addition, in experiment [2], the affinity, expressed as Ki, was 37 µM.
The like results for `CS(=O)(=O)NCC(=O)C(CC(=O)O)NC(=O)OCc1ccccc1` (stereo not shown) [Example 2e, 3-Benzyloxycarbonylamino-5-methanesulfonylamino-4-oxo-pentanoic acid] were, in that order, 1830 µM and 735 µM.
In the case of `O=C(O)CC(NC(=O)OCc1ccccc1)C(=O)CNS(=O)(=O)c1cccc2ccccc12` (stereo not shown) [Example 2f, 3-Benzyloxycarbonylamino-5-(naphthalene-1-sulfonylamino)-4-oxo-pentanoic acid], the IC50 at Ich-2 (Caspase-4) amounted to 1010 µM; in experiment [1] it was 174 µM. This compound also had a Ki in experiment [2] of 22 µM.
The matching figures for `O=C(O)CC(NC(=O)OCc1ccccc1)C(=O)CNS(=O)(=O)CCC1CCCCC1` (stereo not shown) [Example 2g, 3-Benzyloxycarbonylamino-5-(2-cyclohexyl-ethanesulfonylamino)-4-oxo-pentanoic acid]: 314 µM, 136 µM and 33 µM.
The matching figures for `O=C(O)CC(NC(=O)OCc1ccccc1)C(=O)CNS(=O)(=O)CCc1cccc2ccccc12` (stereo not shown) [Example 2h, 3-Benzyloxycarbonylamino-5-(2-naphthalen-1-yl-ethanesulfonylamino)-4-oxo-pentanoic acid]: 199 µM, 55.6 µM and 16 µM.
The matching figures for `CC1(C)C2CC[C@]1(CS(=O)(=O)NCC(=O)C(CC(=O)O)NC(=O)OCc1ccccc1)C(=O)C2` (stereo partly drawn) [Example 2i, 3-Benzyloxycarbonylamino-5-(7,7-dimethyl-2-oxo-bicyclo[2.2.1]hept-1-(R)-ylmethanesulfonylamino)-4-oxo-pentanoic acid]: 59 µM, 25 µM and 30.1 µM.
As for `O=C(O)CC(NC(=O)OCc1ccccc1)C(=O)CNS(=O)(=O)CC1CCc2ccccc21` (stereo not shown) [Example 2j, 3-Benzyloxycarbonylamino-5-(indan-1-ylmethanesulfonylamino)-4-oxo-pentanoic acid], the IC50 at Ich-2 (Caspase-4) came to 159 µM; in experiment [1] it was 194 µM. The compound further showed a Ki in experiment [2] of 65 µM.
As to `O=C(O)CC(NC(=O)OCc1ccccc1)C(=O)CNS(=O)(=O)CC1(F)c2ccccc2-c2ccccc21` (stereo not shown) [Example 2k, 3-Benzyloxycarbonylamino-5-(9-fluoro-9H-fluoren-9-ylmethanesulfonylamino)-4-oxo-pentanoic acid], the Ki in experiment [2] came to 22 µM.
As for `CC1(C)C2CCC1(CS(=O)(=O)NCC(=O)C(CC(=O)O)NC(=O)OCc1ccccc1)C(=O)C2` [Example 2l, 3-Benzyloxycarbonylamino-5-(7.7-dimethyl-2-oxo-bicyclo[2.2.1]hept-1-(S)-ylmethanesulfonylamino)-4-oxo-pentanoic acid], the IC50 against Ich-2 (Caspase-4) was determined as 935 µM; in experiment [1], 28 µM. Also, the affinity in experiment [2] corresponds to a Ki of 1.4 µM.
In experiment [1], `CC1(C)C2CCC1(CS(=O)(=O)NCC(=O)[C@@H](CC(=O)O)NC(=O)OCc1ccccc1)CC2` [Example 2m, (R)-3-Benzyloxycarbonylamino-5-(7,7-dimethyl-bicyclo[2.2.1]hept-1-ylmethane-sulfonylamino)-4-oxo-pentanoic acid] had an IC50 of 35.3 µM. Also, the Ki in experiment [2] worked out at 2.8 µM.
Regarding `CC(NC(=O)C(NC(=O)OCc1ccccc1)C(C)C)C(=O)NC(CC(=O)O)C(=O)CNS(=O)(=O)CCc1ccccc1` (stereo not shown) [Example 3a, 3-[2-(2-Benzyloxycarbonylamino-3-methyl-butyrylamino)-propionylamino]-4-oxo-5-(2-phenyl-ethanesulfonylamino)-pentanoic acid], the IC50 against Ich-2 (Caspase-4) came out at 18 µM; in experiment [1], 0.072 µM. In experiment [2], this compound came in with a Ki of 0.007 µM.
The matching figures for `CC(C)C(NC(=O)C(CCC(=O)O)NC(=O)OCc1ccccc1)C(=O)NC(CC(=O)O)C(=O)CNS(=O)(=O)CCc1ccccc1` (stereo not shown) [Example 3b, 3-[2-(2-Benzyloxycarbonylamino-4-carboxy-butyrylamino)-3-methyl-butyrylamino]-4-oxo-5-(2-phenyl-ethanesulfonylamino)-pentanoic acid]: 4.2 µM, 0.025 µM and 0.013 µM.
The matching figures for `CC(C)C(NC(=O)C(CCC(=O)O)NC(=O)CCc1ccccc1)C(=O)NC(CC(=O)O)C(=O)CNS(=O)(=O)CCc1ccccc1` (stereo not shown) [Example 3c, 3-{2-[4-Carboxy-2-(3-phenyl-propionylamino)-butyrylamino]-3-methyl-butyrylamino}-4-oxo-5-(2-phenyl-ethanesulfonylamino)-pentanoic acid]: 3.4 µM, 0.009 µM and 0.0051 µM.
The matching figures for `CC(=O)NC(Cc1ccc(O)cc1)C(=O)NC(CCC(=O)O)C(=O)NC(C(=O)NC(CC(=O)O)C(=O)CNS(=O)(=O)CCc1ccccc1)C(C)C` (stereo not shown) [Example 3d]: 0.9 µM, 0.003 µM and 0.0078 µM.
The compound `CC(=O)NC(C(=O)NC(CC(=O)O)C(=O)CNS(=O)(=O)C[C@]12CCC(CC1=O)C2(C)C)C(C)C` (stereo partly drawn) [Example 4a, 3-(2-Acetylamino-3-methyl-butyrylamino)-5-(7,7-dimethyl-2-oxo-bicyclo [2.2.1]hept-1-(S)-ylmethanesulfonylamino)-4-oxo-pentanoic acid] yielded an IC50 in experiment [1] of 7.6 µM. In addition, the Ki in experiment [2] stood at 0.27 µM.
Turning to `CC(NC(=O)C(NC(=O)OCc1ccccc1)C(C)C)C(=O)NC(CC(=O)O)C(=O)CNS(=O)(=O)CC12CCC(CC1=O)C2(C)C` (stereo not shown) [Example 4c, 3-[2-(2-Benzyloxycarbonylamino-3-methyl-butyrylamino)-propionylamino]-5-(7,7-dimethyl-2-oxo-bicyclo[2.2.1]hept-1-ylmethanesulfonylamino)-4-oxo-pentanoic acid], the IC50 on Ich-2 (Caspase-4) was determined as 8.5 µM; in experiment [1], 0.015 µM. Also, the Ki in experiment [2] came to 0.001 µM.
As to `O=C(O)C[C@H](NC(=O)CN1CCc2ccccc2C1=O)C(=O)CNS(=O)(=O)c1ccccc1` [Example 5a, 3-(1,2,3,4,-Tetrahydro-1-oxo-isoquinoline-2-yl)acetamino-5-benzenesulfonyl amino-4-oxo-pentanoic acid], inhibition in experiment [1] was half-maximal at 586 µM (IC50). This compound also displayed a Ki in experiment [2] of 105 µM.
Regarding `O=C(O)C[C@H](NC(=O)CN1CCc2ccccc2C1=O)C(=O)CNS(=O)(=O)CCc1ccccc1` [Example 5c, (S)-4-Oxo-3-[2-(1-oxo-3,4-dihydro-1H-isoquinolin-2-yl)-acetylamino]-5-(2-phenyl-ethanesulfonylamino)-pentanoic acid], in experiment [1], the IC50 amounted to 371 µM. In experiment [2], this compound gave a Ki of 45 µM.
In experiment [1], `O=C(O)CC(NC(=O)CN1CCc2ccccc2C1=O)C(=O)CNS(=O)(=O)Cc1ccccc1` (stereo not shown) [Example 5d, 4-Oxo-3-[2-(1-oxo-3,4-dihydro-1H-isoquinolin-2-yl)-acetylamino]-5-phenylmethanesulfonylamino-pentanoic acid] showed an IC50 of 234 µM. This compound also showed a Ki in experiment [2] of 27 µM.
